Test results: patent publication US20200055871A1, “ACTIVATORS OF THE RETINOIC ACID INDUCIBLE GENE "RIG-I" PATHWAY AND METHODS OF USE THEREOF” (Kineta Immuno-Oncology LLC, priority 2018, published 2020)

Assays:
[1] = tested on: RIG-I deficient CT26 RIG-I−/− cells; assay: CXCL10 secretion by RIG-I deficient CT26 RIG-I−/− cells (ELISA); format: cell-based, murine; details: compound 5 to 20 μM, 24 h
Experimental: (§1) The CT26 murine colon carcinoma cell line (ATCC) was used to evaluate the induction of CXCL10 secretion. CXCL10 is an important chemokine in tumor immune biology that recruits tumor-specific T cells to the tumor. To confirm that compound-mediated CXCL10 production was RIG-I specific, RIG-1 deficient CT2-RIG-I−/−cells were generated by Kineta Inc. using CRISPR technology.
(§2) CT26 cells were seeded at a density of 1×10^4 cells per well on a 96-well tissue culture plate in 100 μL of cell culture and cells were incubated at 37° C. and 5% CO2 for 24 hr. Next, CT26 cells were treated with compounds at the indicated concentrations. CXCL10 was quantified by ELISA from supernatants taken 24 h after compound stimulation by use of the CXCL10 Duo Set ELISA kit (Cat #DY466, R&D, Minneapolis, Minn., USA) according to the manufacturer's instructions.
(§3) CXCL10 secretion by CT26 cells in response to compounds (in an amount of 5 to 20 μM) of the present disclosure is shown in Table 8. The compound-induced CXCL10 production was RIG-I dependent, since none of the compounds mediated CXCL10 secretion in RIG-I deficient CT26 RIG-I−/−cells (about 0 pg/mL of CXCL10, or below the level of quantitation). The compounds (10 μM, *20 μM, **5 μM) are indicated in the table as follows: “≠” indicates less than 100 pg/mL; “+” indicates 100-199 pg/mL; “++” indicates 200-399 pg/mL; “+++” indicates 400-799 pg/mL; “++++” indicates 800 to 1599 pg/mL; “+++++” indicates greater than or equal to 1600 pg/ml.

[2] = tested on: murine CT26 colon carcinoma cells; assay: RIG-I dependent CXCL10 secretion by CT26 cells (ELISA); format: cell-based; details: supernatant 24 h after stimulation
Experimental: as §1, §2, §3

[3] = tested on: IRF3 signaling pathway in THP1-Lucia™ ISG cells; assay: THP1-Lucia ISG reporter assay: induction of IRF3-dependent gene expression (secreted luciferase); format: cell-based, human; details: Homo sapiens, THP1-Lucia ISG; 10 μM compound, PMA-differentiated cells, 18 h after stimulation; read-out: fold increase of IRF3-dependent luciferase activity over background, THP1 ISG
Experimental: The compounds were evaluated in the THP1-Lucia™ ISG (interferon stimulated genes) reporter assay to determine if the compounds activate the IRF3 signaling pathway. The THP1-Lucia™ cells (InvivoGen) express the secreted luciferase (Lucia) reporter gene under the control of an IRF-inducible promoter. The reporter cell line was developed from human monocytic leukemia THP-1 cells.
The promoter was comprised of five IFN-stimulated response elements (ISRE) fused to an ISG54 minimal promoter which is unresponsive to NF-kB or AP-1 pathways. […] The IRF3-deficient THP1-Lucia™ ISG IRF3−/−reporter cell line was generated by CRISPR technology from the parent THP1-Lucia™ ISG reporter cell line.
THP1-Lucia™ ISG cells and IRF3-deficient THP1-Lucia™ ISG IRF3−/−cells were differentiated with PMA (100 ng/ml) and stimulated with compounds at the indicated concentrations (5 to 20 μM), positive control, or not treated (background). Luciferase secretion was quantified using the QUANTI-Luc luciferase assay system (InvivoGen) 18 h after stimulation. Data are shown as fold increase luciferase activity over background in Table 7 and represent the IRF3-dependent ISG54 promoter activity by the THP1-Lucia™ ISG cells in response to compounds. […] The fold increase of compounds (10 μM, *20 μM, **5 μM) induced IRF3 dependent luciferase activity is indicated as follows: “≠” indicates less than 2.4 fold increase; “+” indicates a 2.4-4.9 fold increase; “++” indicates a 5-9.9 fold increase; “+++” indicates a 10-19 fold increase; “++++” indicates a 20-39 fold increase; “+++++” indicates greater than or equal to 40 fold increase.

SMILES | CXCL10 secretion, CT26 RIG-I−/− [1] | CXCL10 secretion, CT26 ([2]; 10 μM compound) | fold induction at 10 µM [3] | CXCL10 secretion, CT26 ([2]; 20 μM compound (*))
CSc1nc2c(ccc3nc(NC(=O)c4cc5ccccc5cc4OCCCN4CCOCC4)sc32)s1 [Example 36, N-[11-(methylsulfanyl)-3,10-dithia-5,12-diazatricyclo[7.3.0.0^2,^6]dodeca-1,4,6,8,11-pentaen-4-yl]-3-[3-(morpholin-4-yl)propoxy]naphthalene-2-carboxamide] | − | +++ (400-799 pg/mL) | 5 to 9.9 | 
O=C(Nc1nc2ccc3scnc3c2s1)c1ccc(-c2ccccc2)cc1OCCCCN1CCOCC1 [Example 38, N-{3,10-dithia-5,12-diazatricyclo[7.3.0.0^2,^6]dodeca-1,4,6,8,11-pentaen-4-yl}-3-[4-(morpholin-4-yl)butoxy]-[1,1′-biphenyl]-4-carboxamide] | − | +++ (400-799 pg/mL) | 5 to 9.9 | 
O=C(Nc1nc2ccc3scnc3c2s1)c1ccc2cc(OCCCCN3CCOCC3)ccc2c1 [Example 39, N-{3,10-dithia-5,12-diazatricyclo[7.3.0.0^2,^6]dodeca-1,4,6,8,11-pentaen-4-yl}-6-[4-(morpholin-4-yl)butoxy]naphthalene-2-carboxamide] | − | ++ (200-399 pg/mL) | 5 to 9.9 | 
O=C(Nc1nc2ccc3scnc3c2s1)c1cc2c(cc1OCCN1CCOCC1)OCO2 [Example 40, N-{3,10-dithia-5,12-diazatricyclo[7.3.0.0^2,^6]dodeca-1,4,6,8,11-pentaen-4-yl}-6-[2-(morpholin-4-yl)ethoxy]-2H-1,3-benzodioxole-5-carboxamide] | − | ≠ (less than 100 pg/mL) | 20 to 39 | 
O=C(Nc1nc2ccc3scnc3c2s1)c1cc2c(cc1OCCCCN1CCOCC1)OCO2 [Example 41, N-{3,10-dithia-5,12-diazatricyclo[7.3.0.0^2,^6]dodeca-1,4,6,8,11-pentaen-4-yl}-6-[4-(morpholin-4-yl)butoxy]-2H-1,3-benzodioxole-5-carboxamide] | − | + (100-199 pg/mL) | 2.4 to 4.9 | 
O=C(Nc1nc2ccc3scnc3c2s1)c1cc2ccsc2cc1OCCN1CCOCC1 [Example 42, N-{3,10-dithia-5,12-diazatricyclo[7.3.0.0^2,^6]dodeca-1,4,6,8,11-pentaen-4-yl}-6-[2-(morpholin-4-yl)ethoxy]-1-benzothiophene-5-carboxamide] | − |  | < 2.4 | +* (100-199 pg/mL)
O=C(Nc1nc2ccc3scnc3c2s1)c1cc2ccsc2cc1OCCCCN1CCOCC1 [Example 43, N-{3,10-dithia-5,12-diazatricyclo[7.3.0.0^2,^6]dodeca-1,4,6,8,11-pentaen-4-yl}-6-[4-(morpholin-4-yl)butoxy]-1-benzothiophene-5-carboxamide] | − | +++ (400-799 pg/mL) | 10 to 19 | 
CCN(CCO)CCOc1cc2ccccc2cc1C(=O)Nc1nc2ccc3scnc3c2s1 [Example 45, N-{3,10-Dithia-5,12-diazatricyclo[7.3.0.0^2,6]dodeca-1,4,6,8,11-pentaen-4-yl}-3-{2-[ethyl(2-hydroxyethyl)amino]ethoxy}naphthalene-2-carboxamide carboxamide] | − | +++ (400-799 pg/mL) | 10 to 19 | 
